The values that follow come from patent US10450292B2, “Inhibitors of bacterial RNA polymerase: arylpropanoyl, arylpropenoyl, and arylcyclopropanecarboxyl phloroglucinols” (Rutgers, The State University of New Jersey, priority 2015, dated 2019).

The test system of test [1] is Enterococcus faecalis ATCC 19433. Description: Inhibition of bacterial growth in culture, spiral gradient endpoint assay (MIC). In kind it is cell-based. The following applies: for MIC: Enterococcus faecalis, ATCC 19433 /, 16 h, read-out: MIC E. faecalis, Mueller-Hinton II agar, 16 h at 37° C. From the text:
J. Microbiol. Meths. […] Int. J. Exp. Clin. Chemother. […] Adv.

Test [2] deals with Staphylococcus aureus ATCC 12600. The description is as above. The following applies: for MIC: Staphylococcus aureus, ATCC12600, 16 h, read-out: MIC S. aureus 12600, Mueller-Hinton II agar, 16 h at 37° C.
The subject of test [3] is Escherichia coli D21f2tolC. As to conditions: Mueller-Hinton II agar, 16 h at 37° C.
Test [4] has as its system Escherichia coli D21f2tolC. Put plainly: microbe, parasite or virus in culture. The following applies: 16 h, read-out: MIC E. coli D21f2tolC, Mueller-Hinton II agar, 16 h at 37° C.
Where [5] appears, read: Mueller-Hinton II agar, 16 h at 37° C.

In brackets after ≈: the same amount, converted by molar mass. A value given as a limit tells only on which side of the number the result lay.

With `CCC1=C(O)C(CC)(CC)C(=O)C(C(=O)C2CC2c2ccc(Cl)cc2)=C1O` (stereo not drawn) [Example 89, 2-(2-(4-chlorophenyl)cyclopropanecarbonyl)-4,6,6-triethyl-3,5-dihydroxycyclohexa-2,4-dienone], the “MIC E. faecalis H37Rv” value in test [1] (setting [5]) is more than 40 µg/mL. Moreover, in test [2] (setting [5]), the “MIC S. aureus 12600” value stood at 7.9 µg/mL (≈ 20.3 µM). Moreover, the “MIC E. coli D21f2tolC” value in test [3] is 3.0 µg/mL (≈ 7.71 µM).

As to `CC1=C(O)C(C)(C)C(=O)C(C(=O)C2CC2c2ccc(Oc3ccc(F)cc3)cc2)=C1O` (stereo not drawn) [Example 92, 2-(2-(4-(4-fluorophenoxy)phenyl)cyclopropanecarbonyl)-3,5-dihydroxy-4,6,6-trimethylcyclohexa-2,4-dienone], the MIC is more than 40 µg/mL in test [1], 21 µg/mL (≈ 49.7 µM) in test [2] and 5.5 µg/mL (≈ 13 µM) in test [4].

As for `Cc1ccc(C2CC2C(=O)c2c(O)cc(O)cc2O)cc1` (stereo not drawn) [Example 19, (2-(p-tolyl)cyclopropyl)(2,4,6-trihydroxyphenyl)methanone], the values for the MIC in test [1], in test [2] and in test [4] were more than 40 µg/mL, 20 µg/mL (≈ 70.3 µM) and 13 µg/mL (≈ 45.7 µM), respectively.

With `O=C(c1c(O)cc(O)cc1O)C1CC1c1ccc(Oc2ccc(Cl)cc2)cc1` (stereo not drawn) [Example 13, (2-(4-(4-chlorophenoxy)phenyl)cyclopropyl)(2,4,6-trihydroxyphenyl)methanone], the MIC in test [1] is 4.8 µg/mL (≈ 12.1 µM); in test [2], 4.3 µg/mL (≈ 10.8 µM); in test [4], 2.1 µg/mL (≈ 5.29 µM).

Take `CCC1=C(O)C(CC)(CC)C(=O)C(C(=O)CCc2ccc(Oc3ccc(F)cc3)cc2C(F)(F)F)=C1O` [Example 73, 4,6,6-triethyl-2-(3-(4-(4-fluorophenoxy)-2-(trifluoromethyl)phenyl)propanoyl)-3,5-dihydroxycyclohexa-2,4-dienone]: the results for the MIC in test [1], in test [2] and in test [4] were 1.6 µg/mL (≈ 3.07 µM), 1.5 µg/mL (≈ 2.88 µM) and 1.2 µg/mL (≈ 2.31 µM), respectively.

In the case of `O=C(CCc1ccc(Oc2ccc(Cl)cc2)cc1C(F)(F)F)c1c(O)cc(O)cc1O` [Example 23, 3-(4-(4-chlorophenoxy)-2-(trifluoromethyl)phenyl)-1-(2,4,6-trihydroxyphenyl)propan-1-one], the MIC in test [1] amounted to 1.7 µg/mL (≈ 3.75 µM); in test [2], 1.1 µg/mL (≈ 2.43 µM); in test [4] it was 1.7 µg/mL (≈ 3.75 µM).

For `CCCC1=C(O)C(CCC)(CCC)C(=O)C(C(=O)C2CC2c2ccc(Oc3ccc(F)cc3)cc2C(F)(F)F)=C1O` (stereo not drawn) [Example 70, 2-(2-(4-(4-fluorophenoxy)-2-(trifluoromethyl)phenyl)cyclopropanecarbonyl)-3,5-dihydroxy-4,6,6-tripropylcyclohexa-2,4-dienone], the MIC in test [1] is 1.2 µg/mL (≈ 2.09 µM); in test [2] it was 1.5 µg/mL (≈ 2.61 µM); in test [4], 8.2 µg/mL (≈ 14.3 µM).

Regarding `O=C(/C=C/c1ccc(C(F)(F)F)cc1)c1c(O)cc(O)cc1O` [Example 14, (E)-3-(4-(trifluoromethyl)phenyl)-1-(2,4,6-trihydroxyphenyl)prop-2-en-1-one], the MIC came to 32 µg/mL (≈ 98.7 µM) in test [1], 32 µg/mL (≈ 98.7 µM) in test [2] and 20 µg/mL (≈ 61.7 µM) in test [4].

On to `O=C(c1c(O)cc(O)c(Cl)c1O)C1CC1c1ccc(Cl)cc1` (stereo not drawn) [Example 55, (3-chloro-2,4,6-trihydroxyphenyl)(2-(4-chlorophenyl)cyclopropyl)methanone], for which the MIC in test [1] is 22 µg/mL (≈ 64.9 µM); in test [2] it was 17 µg/mL (≈ 50.1 µM); in test [4], more than 40 µg/mL.
